The record followed here is patent US12378256B2, “Heterocyclic compound” (Takeda Pharmaceutical Company Limited, priority 2017, dated 2025).

For orientation: clearance means the rate of elimination divided by the concentration. By MRT is commonly meant a mean duration of stay, worked out from the concentration-time curve.

SMILES strings stand for the structures.

The nature of series [1]: Rat PK test (cassette dosing). It counts as in vivo. The note with it: male SD rats, plasma; for Tmax: oral 1 mg/kg and iv 0.1 mg/kg given, route not stated for Tmax, read-out: Tmax (time to reach maximum plasma concentration); for clearance / MRT: intravenous 0.1 mg/kg; for clearance: read-out: CL total (total clearance) (converted); for MRT: read-out: MRT iv (mean residence time). How it is done:
As the rat, 8-week-old male SD rats (Japan SLC, Inc.) were used. They were fed on a solid commercially available diet (CE-2, CLEA Japan, Inc.) and allowed to freely ingest tap water as the drinking water. An intravenous administration solution for the rats was prepared by weighing a test compound, dissolving same in dimethylacetamide (DMA) (Wako Pure Chemical Industries, Ltd.), adding the same volume of 1,3-butanediol (Wako Pure Chemical Industries, Ltd.) and mixing by stirring to give a DMA:1,3-butanediol (1:1, v/v) solution. An oral administration solution was prepared by weighing a test compound, pulverizing same in an agate mortar, and gradually adding 0.5 w/v % aqueous methylcellulose solution to give a suspension. For intravenous administration, the solution was administered into femoral vein of the rats at 0.1 mg/0.5 mL/kg (salt converted to free form). For oral administration, the suspension was administered to the rats at 1 mg/5 mL/kg (salt converted to free form). The cassette dosing method was used for the both administration routes, and the test compound was administered in the following manner. • Compound of Example 20 (intravenous: 8 compounds cassette administration, oral: 5 compounds cassette administration) • Compound of Example 22 (intravenous: 5 compounds cassette administration, oral: 5 compounds cassette administration) • Compound of Example 31 (intravenous: 10 compounds cassette administration, oral: 5 compounds cassette administration) • Compound of Example 36 (intravenous: 10 compounds cassette administration, oral: 5 compounds cassette administration) • Compound of Example 44 (intravenous: 10 compounds cassette administration, oral: 5 compounds cassette administration) • Compound of Example 55 (intravenous: 6 compounds cassette administration, oral: 4 compounds cassette administration) • Compound of Example 74 (intravenous: 10 compounds cassette administration, oral: 5 compounds cassette administration) • Compound of Example 76 (intravenous: 9 compounds cassette administration, oral: 4 compounds cassette administration) • Compound of Example 77 (intravenous: 10 compounds cassette administration, oral: 5 compounds cassette administration) • Compound of Example 102 (intravenous: 10 compounds cassette administration, oral: 5 compounds cassette administration) • Compound of Example 109 (intravenous: 7 compounds cassette administration, oral: 4 compounds cassette administration)
In the case of intravenous administration, blood samples were collected from the tail vein at 5, 10, 15, 30 min, 1, 2, 4, 8 hr after administration, an anticoagulation treatment with heparin sodium (Shimizu Pharmaceutical Co., Ltd.) was performed, and plasma was collected after centrifugation and subjected to the measurement of drug concentration. In the case of oral administration, blood samples were collected from the tail vein at 15, 30 min, 1, 2, 4, 8 hr after administration, an anticoagulation treatment with heparin sodium was performed, and plasma was collected after centrifugation and subjected to the measurement of drug concentration.
All drug concentrations were measured by LC-MS/MS analysis. For a pharmacokinetics test, the plasma (50 μL) was placed in a tube, acetonitrile (150 μL) containing internal standard solution was added and they were mixed on a vortex mixer. Thereafter, the mixture was centrifuged (5000 rpm, 5 min, 4° C.). The supernatant (60 μL) after centrifugation was added to 10 mmol/L ammonium formate (160 μL) added earlier and mixed therewith. This sample was injected to LC/MS/MS. […]

In a further series the target is T1, MDR1 (Homo sapiens, UniProt P08183).
T1 construct: expressed in transfected cells; host or cells: LLC-PK1 (porcine kidney cells)
T1 sequence (P08183 whole entry): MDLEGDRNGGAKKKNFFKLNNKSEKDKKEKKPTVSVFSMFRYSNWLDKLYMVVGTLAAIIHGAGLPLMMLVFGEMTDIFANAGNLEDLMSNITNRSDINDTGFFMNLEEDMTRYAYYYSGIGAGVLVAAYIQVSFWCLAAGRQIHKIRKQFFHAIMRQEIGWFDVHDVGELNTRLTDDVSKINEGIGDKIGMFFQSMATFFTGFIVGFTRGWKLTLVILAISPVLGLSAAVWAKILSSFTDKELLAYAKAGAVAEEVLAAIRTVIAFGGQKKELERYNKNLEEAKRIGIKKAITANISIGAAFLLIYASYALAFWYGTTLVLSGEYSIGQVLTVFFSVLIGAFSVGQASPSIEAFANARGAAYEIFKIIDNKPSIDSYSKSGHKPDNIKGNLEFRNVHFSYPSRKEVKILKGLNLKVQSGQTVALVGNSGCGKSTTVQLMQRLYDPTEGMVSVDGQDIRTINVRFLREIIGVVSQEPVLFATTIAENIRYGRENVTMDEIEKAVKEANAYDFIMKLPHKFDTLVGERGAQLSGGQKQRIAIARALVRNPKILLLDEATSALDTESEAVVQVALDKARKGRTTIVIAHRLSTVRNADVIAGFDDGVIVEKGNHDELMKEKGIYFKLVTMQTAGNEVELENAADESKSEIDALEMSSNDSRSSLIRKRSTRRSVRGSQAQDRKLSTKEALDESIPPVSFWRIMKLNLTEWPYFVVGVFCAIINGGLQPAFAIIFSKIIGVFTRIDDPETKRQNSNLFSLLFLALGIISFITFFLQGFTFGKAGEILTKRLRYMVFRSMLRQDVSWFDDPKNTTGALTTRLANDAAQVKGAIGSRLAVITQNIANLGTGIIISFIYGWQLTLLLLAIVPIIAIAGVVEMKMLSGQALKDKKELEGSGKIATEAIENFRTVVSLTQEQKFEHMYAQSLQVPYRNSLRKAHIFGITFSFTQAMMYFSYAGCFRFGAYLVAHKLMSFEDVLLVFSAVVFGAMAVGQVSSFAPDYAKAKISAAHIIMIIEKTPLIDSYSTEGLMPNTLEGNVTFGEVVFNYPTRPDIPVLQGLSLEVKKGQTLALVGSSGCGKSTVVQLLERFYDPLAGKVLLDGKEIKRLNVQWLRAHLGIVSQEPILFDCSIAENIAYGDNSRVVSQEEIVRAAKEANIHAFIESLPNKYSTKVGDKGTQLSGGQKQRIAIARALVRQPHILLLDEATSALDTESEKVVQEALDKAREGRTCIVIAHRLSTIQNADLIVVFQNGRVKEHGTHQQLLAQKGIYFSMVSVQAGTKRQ
In words: MDR1 membrane permeability test. It counts as in vitro ADME. The note with it: pH 7.4, efflux ratio (ER), human MDR1-expressing LLC-PK1 cells, 37° C., read-out: MDR1 substrate screening 1 μM (MDRSUB1)/Ratio (NUMBER). How it is done:
MDR1 Membrane Permeability Test
When MDR1 is expressed in excess in LLC-PK1 cell, which is a polar cell, MDR1 is localized in apical membrane (A), thus promoting transcellular transport from the basement membrane side (B) toward direction A. When a ratio to the transcellular transport in the opposite direction is taken and a ratio to a control cell in which a mock vector has been introduced is further taken, an efflux ratio of MDR1 to simple diffusion (corrected efflux ratio) is calculated. Similarly, when a brain/plasma concentration ratio in Mdr1(−/−) mouse is divided by a brain/plasma concentration ratio in wild-type mouse, an efflux ratio of Mdr1 to simple diffusion in blood-brain barrier (BBB) (Kp, brain ratio, higher value means lower central nervous system permeability) is calculated. Adachi Y. et al. (Reference 1) has reported a positive correlation between corrected efflux ratio and Kp, brain ratio (FIG. 5(C)), and efflux ratio in MDR1 expressing cell and Kp, brain ratio (FIG. 5(B)).
To confirm the central nervous system permeability of the compounds of the present invention, a MDR1 membrane permeability test was performed by the following method.
Digoxin and lucifer yellow (LY) were purchased from Sigma-Aldrich, Diclofenac, colchicine and alprenolol were purchased from Wako Pure Chemical Industries, Ltd., and other reagents used were commercially available products of special grade.
Human MDR1-expressing LLC-PK1 cells were cultured according to the report of Takeuchi et al. (Reference 2). Human MDR1-expressing LLC-PK1 cells were cultured in 10% fetal bovine serum (Invitrogen), 500 μg/ml G418 (Invitrogen), 150 ng/ml colchicine-containing M199 medium (Invitrogen) under 5% CO2 conditions at 37° C.
Transcellular transport was performed according to the report of Sugimoto et al. (Reference 3). The cells were cultured for 3 days on HTS Transwell (registered trademark) 96 well permeable support (pore size 0.4 μm, 0.143 cm^2 surface area, Corning Life Sciences) having polyethylene terephthalate membrane on which the cells had been seeded at 3.45×10^4 cells/well. After preincubation in M199 medium (containing 10 mmol/L HEPES, 1% BSA, pH 7.4) for 30 min, a drug solution (10 μmol/L digoxin, 200 μmol/L LY, […]) dissolved in M199 medium was added to the apical side or basolateral side of the Transwell by 75 or 250 μL each and the cells were cultured under 5% CO2 conditions at 37° C. After 1 hr, the sample was collected from the side opposite to the side where the drug solution was added, and the concentration of the test compound was measured by LC-MS/MS. As an internal standard substance, 100 ng/mL alprenolol and diclofenac were used. The analysis conditions were as follows. • LC: UFLC LC-20 (Shimadzu) • MS/MS: API4000 (AB Sciex Instruments) • LC condition: gradient method
[formula] • Amount: amount of transported digoxin/well • Area: surface area of cell monolayer (0.143 cm^2) • C0: concentration of drug solution added • Time: incubation time

`Cn1cc(-c2ccc(C(F)c3cc(C(=O)N[C@H]4CCOC[C@@H]4O)nc4ccoc34)cc2)nn1` (single isomer, unassigned) [Example 55, 1,5-anhydro-2,3-dideoxy-3-(((7-(fluoro(4-(1-methyl-1H-1,2,3-triazol-4-yl)phenyl)methyl)furo[3,2-b]pyridin-5-yl)carbonyl)amino)-L-threo-pentitol]: in series [1], the Tmax is 1.7 h, the clearance is 1.81 L/h/kg and the MRT came out at 0.6 h. The efflux ratio at 1 h, 1 μM at MDR1 amounted to 6.5.
As for `Cn1cc(-c2ccc(Cc3cc(C(=O)N[C@H]4CCOC[C@@H]4O)nc4ccoc34)cc2)nn1` [Example 20, 1,5-anhydro-2,3-dideoxy-3-(((7-(4-(1-methyl-1H-1,2,3-triazol-4-yl)benzyl)furo[3,2-b]pyridin-5-yl)carbonyl)amino)-L-threo-pentitol], in series [1], the Tmax came out at 2 h, the clearance is 0.246 L/h/kg and the MRT was 1.8 h. Besides, the efflux ratio at 1 h, 1 μM on MDR1 stood at 4.8.
The matching figures for `O=C(N[C@H]1CCOC[C@@H]1O)c1cc(Cc2ccc(-n3cccn3)cc2)c2c(n1)CCO2` [Example 22, 1,5-anhydro-2,3-dideoxy-3-(((7-(4-(1H-pyrazol-1-yl)benzyl)-2,3-dihydrofuro[3,2-b]pyridin-5-yl)carbonyl)amino)-L-threo-pentitol]: 2 h, 0.28 L/h/kg, 1.9 h and 2.6.
For `Cn1cc(-c2ccc(Cc3cc(C(=O)N[C@H]4CCOC[C@@H]4O)nc4c3OCC4)cc2)nn1` [Example 31, 1,5-anhydro-2,3-dideoxy-3-(((7-(4-(1-methyl-1H-1,2,3-triazol-4-yl)benzyl)-2,3-dihydrofuro[3,2-b]pyridin-5-yl)carbonyl)amino)-L-threo-pentitol], in series [1], the Tmax turned out to be 1 h, the clearance was 0.2 L/h/kg and the MRT is 1.5 h. In addition, the efflux ratio at 1 h, 1 μM on MDR1 was determined as 11.
With `Cn1cc(-c2ccc(Cc3cc(C(=O)N[C@H]4CCOC[C@@H]4O)nc4ccoc34)cn2)cn1` [Example 36, 1,5-anhydro-2,3-dideoxy-3-(((7-((6-(1-methyl-1H-pyrazol-4-yl)pyridin-3-yl)methyl)furo[3,2-b]pyridin-5-yl)carbonyl)amino)-L-threo-pentitol], in series [1], the Tmax stood at 1.3 h, the clearance was 0.327 L/h/kg and the MRT was 1.9 h. Besides, on MDR1, the efflux ratio at 1 h, 1 μM was determined as 9.1.
As for `Cn1cc(-c2ccc(Cc3cc(C(=O)N[C@H]4CCOC[C@@H]4O)nc4c3OCC4)cc2)cn1` [Example 44, 1,5-anhydro-2,3-dideoxy-3-(((7-(4-(1-methyl-1H-pyrazol-4-yl)benzyl)-2,3-dihydrofuro[3,2-b]pyridin-5-yl)carbonyl)amino)-L-threo-pentitol], in series [1], the Tmax came out at 1.3 h, the clearance was 0.286 L/h/kg and the mean residence time MRT was 1.3 h. Moreover, the efflux ratio at 1 h, 1 μM at MDR1 amounted to 5.5.
Consider `Cn1cnc(-c2ccc(Cc3cc(C(=O)N[C@H]4CCOC[C@@H]4O)nc4c3OCC4)cc2)c1` [Example 74, 1,5-anhydro-2,3-dideoxy-3-(((7-(4-(1-methyl-1H-imidazol-4-yl)benzyl)-2,3-dihydrofuro[3,2-b]pyridin-5-yl)carbonyl)amino)-L-threo-pentitol], for which, in series [1], the Tmax came to 0.8 h, the clearance was 0.843 L/h/kg and the MRT came to 0.9 h. Moreover, the efflux ratio at 1 h, 1 μM at MDR1 turned out to be 11.
The like results for `COCCNC(=O)c1ccc(Cc2cc(C(=O)N[C@H]3CCOC[C@@H]3O)nc3c2OCC3)cc1F` [Example 76, 1,5-anhydro-2,3-dideoxy-3-(((7-(3-fluoro-4-((2-methoxyethyl)carbamoyl)benzyl)-2,3-dihydrofuro[3,2-b]pyridin-5-yl)carbonyl)amino)-L-threo-pentitol] were, in that order, 0.8 h, 0.335 L/h/kg, 1.2 h and 35.
As to `O=C(N[C@H]1CCOC[C@@H]1O)c1cc(Cc2ccc(C(=O)NC[C@@H]3CCCO3)c(F)c2)c2c(n1)CCO2` [Example 77, 1,5-anhydro-2,3-dideoxy-3-(((7-(3-fluoro-4-(((2S)-tetrahydrofuran-2-ylmethyl)carbamoyl)benzyl)-2,3-dihydrofuro[3,2-b]pyridin-5-yl)carbonyl)amino)-L-threo-pentitol], in series [1], the Tmax stood at 1 h, the clearance was 0.488 L/h/kg and the MRT is 0.8 h. Also, the efflux ratio at 1 h, 1 μM at MDR1 was determined as 25.
On to `O=C(N[C@H]1CCOC[C@@H]1O)c1cc(Cc2ccc(C(=O)NC[C@@H]3CCCO3)c(F)c2)c2occc2n1` [Example 102, 1,5-anhydro-2,3-dideoxy-3-(((7-(3-fluoro-4-(((2S)-tetrahydrofuran-2-ylmethyl)carbamoyl)benzyl)furo[3,2-b]pyridin-5-yl)carbonyl)amino)-L-threo-pentitol], for which, in series [1], the Tmax worked out at 1 h, the clearance is 0.703 L/h/kg and the MRT was 0.9 h. Moreover, at MDR1, the efflux ratio at 1 h, 1 μM came out at 20.
On to `COCCNC(=O)c1ccc(Cc2cc(C(=O)N[C@H]3CCOC[C@@H]3O)nc3ccoc23)cc1F` [Example 109, 1,5-anhydro-2,3-dideoxy-3-(((7-(3-fluoro-4-((2-methoxyethyl)carbamoyl)benzyl)furo[3,2-b]pyridin-5-yl)carbonyl)amino)-L-threo-pentitol], for which, in series [1], the Tmax was found to be 1 h, the clearance was 0.404 L/h/kg and the MRT amounted to 1.5 h. In addition, the efflux ratio at 1 h, 1 μM on MDR1 amounted to 10.
